These results are taken from patent publication US20250179037A1 (Jiangsu Jibeier Pharmaceutical Co., Ltd., priority 2021, published 2025).

In brackets after ≈: the same amount, converted by molar mass. Marks after values point to notes of the source that are not given here.

The subject of series [1] is mice leukopenia models (peripheral blood leukocytes). Nature of the series: Cyclophosphamide-induced mice leukopenia model, leukocyte counts. The settings on record: for Leukocyte Level, End of treatment: 30 mg/kg intragastric once daily for 28 days, Day 29; for Leukocyte Level, End of treatment / Leukocyte Level, Before modeling / Leukocyte Level, After modeling: X ± S; for Leukocyte Level, Before modeling / Leukocyte Level, After modeling: 30 mg/kg intragastric once daily; for Leukocyte Level, Before modeling: Day 7 after drug administration; for Leukocyte Level, After modeling: Day 15, cyclophosphamide 25 mg/kg i.p. Day 8 to Day 14; for effect on leucocyte level compared to the leucogen crystalline form C group / leucocyte levels after treatment, compared to the model control group: 30 mg/kg, after treatment, P<0.05. The class given is in vivo, male Balb/C mice. Here is the method: A total of 100 male Balb/C mice with the body weight ranging from 22 g to 24 g were randomly selected and randomly divided into the following five groups: the normal control group, the model control group, the leucogen crystalline form A group, the leucogen crystalline form B group, and the leucogen crystalline form C group, 20 mice in each group. In the leucogen crystalline forms A, B and C groups, the mice were intragastrically administered with 30 mg/kg once daily for a total of 28 days. In the normal control group and the model control group, the mice were administered with an equal volume of saline once daily for a total of 28 days. In the model control group and the leucogen groups, 25 mg/kg of cyclophosphamide was intraperitoneally injected in the mice at Day 8 to Day 14 respectively to establish mice leukopenia models. Blood samples were collected from the retro-orbital venous sinus of mice before modeling, after modeling, and at the end of drug administration (i.e., Day 7, Day 15, and Day 29 after drug administration) for leukocyte counts, respectively. The experimental data were statistically processed with the SPSS 17.0 software package, and expressed as mean±standard deviation (X±S), where P<0.05 indicated there was a statistical significance.

Series [2] can be described thus: TGA/DSC test (thermostability). Format: physicochemical. Conditions: for thermostability (compared with crystalline form C): conclusion from TGA/DSC table. An excerpt:
TGA and DSC Test Methods:
TGA and DCS patterns were collected on TA Discovery TGA 5500 thermogravimetric analyzer and TA Discovery DSC 2500 differential scanning calorimeter, respectively.

Series [3] is described as follows: Test on saturated solubility in water (HPLC). Format: physicochemical. Conditions: for solubility property (compared with crystalline form C): conclusion from water saturation solubility table; for Solubility in 1 h / Solubility in 2 h / Solubility in 18 h: 37° C. As to the method: Test on Saturated Solubility in Water:
• Chromatographic column: KromasiL C18 4.6*250 mm, 5 m • Column temperature: 30° C. flow rate: 1.0 mL/min sample size: 20 μL detection wavelength: 210 nm • Mobile phase: acetonitrile-water-glacial acetic acid (42:58:0.3) • Formulation of control solution: 10 mg of leucogen as a control product was precisely weighed, put in a 100-mL measuring flask, dissolved with the mobile phase, and diluted to the scale to afford 100 μg/mL of mother solution, and the mother solution was subjected to 10-fold, 100-fold, and 1000-fold serial dilutions to afford solutions at the concentrations of 10 μg/mL, 1 μg/mL, and 0.1 μg/mL, respectively.
Formulation of test solution: about 20 mg of 211118 batch (crystalline form A) and 211124 batch (crystalline form B) of the leucogen samples were weighed, each for 3 copies, and put in six 10-mL test tubes with stoppers respectively; 10 mL of water was added respectively; the test tubes were oscillated under the conditions of 37° C. and 100 r/min for 1 h, 2 h, and 18 h respectively; the resultants were filtered through 0.45-μm microporous filter membranes, and the filtrates were taken as the test solutions.
The control solution and the test solutions were tested under the above chromatographic conditions, separately. The area of the control solution was linearly regressed with its concentration. The saturated solubility in water was obtained from the peak areas of the test solutions.

The mark [4] stands for this setting: listed as Leucogen crystalline form A.
Setting [5] is: listed as Leucogen crystalline form B.
The mark [6] stands for this setting: water, 100 r/min, oscillated 1 h.
Setting [7] is: water, 100 r/min, oscillated 2 h.
[8] abbreviates: water, 100 r/min, oscillated 18 h.
The mark [9] stands for this setting: listed as Leucogen crystalline form C.

On to `CCOC(=O)C(c1ccccc1)C1N[C@H](C(=O)O)CS1` (some centres unmarked), for which, in series [1] (setting [4]), the “Leukocyte Level, End of treatment” value is listed as 9.23 ± 1.42*^Δ 10^9/L; the “Leukocyte Level, Before modeling” value is listed as 9.92 ± 1.59 10^9/L; the “Leukocyte Level, After modeling” value is 3.31 ± 1.43 10^9/L. Also, in series [1], the “effect on leucocyte level compared to the leucogen crystalline form C group” value is listed as “better effect” and the “leucocyte levels after treatment, compared to the model control group” value is given as “significantly increased”. Besides, the “TGA Weight Loss (%)” value in series [2] (100° C.) is on record as 3.07 (100° C.) %. The “thermostability (compared with crystalline form C)” value in series [2] is “better than that of the crystalline form C”. In addition, the “solubility property (compared with crystalline form C)” value in series [3] was “better than that of the crystalline form C”. In addition, the solubility in series [3] (water, 37 °C, thermodynamic from solid) is at least 240 µg/mL. The molecule further registered a solubility at 1 h in series [3] (water, 37 °C, thermodynamic from solid, 100 r/min, oscillated 1 h) of 115 µg/mL (≈ 390 µM). This molecule returned a solubility at 2 h in series [3] (water, 37 °C, thermodynamic from solid, 100 r/min, oscillated 2 h) of 137 µg/mL (≈ 465 µM). In series [3] (water, 37 °C, thermodynamic from solid, 100 r/min, oscillated 18 h), this molecule returned a solubility at 18 h of 241 µg/mL (≈ 816 µM).

In the case of `CCOC(=O)C(c1ccccc1)C1N[C@H](C(=O)O)CS1` (single isomer, unassigned), in series [1] (setting [5]), the “Leukocyte Level, End of treatment” value is on record as 8.98 ± 1.13*^Δ 10^9/L; the “Leukocyte Level, Before modeling” value is given as 9.63 ± 0.99 10^9/L; the “Leukocyte Level, After modeling” value is 3.46 ± 1.24 10^9/L. In series [1], the “effect on leucocyte level compared to the leucogen crystalline form C group” value is reported as “better effect” and the “leucocyte levels after treatment, compared to the model control group” value is “significantly increased”. In series [2] (150° C.), the “TGA Weight Loss (%)” value is on record as 0.46 (150° C.) %. Also, the “thermostability (compared with crystalline form C)” value in series [2] was “better than that of the crystalline form C”. In addition, the “solubility property (compared with crystalline form C)” value in series [3] is recorded as “better than that of the crystalline form C”. In addition, the solubility in water in series [3] (listed as crystalline form B of leucogen) was at least 256 µg/mL. In addition, the “Solubility in 1 h” value in series [3] (setting [6]) was 161.68 µg/mL (≈ 547 µM). Moreover, the “Solubility in 2 h” value in series [3] (setting [7]) came out at 177.41 µg/mL (≈ 601 µM). Further, the “Solubility in 18 h” value in series [3] (setting [8]) stood at 256.62 µg/mL (≈ 869 µM).

Regarding `CCOC(=O)C(c1ccccc1)C1N[C@H](C(=O)O)CS1` (single isomer, unassigned) [reference compound], in series [1] (setting [9]), the “Leukocyte Level, End of treatment” value was 6.05 ± 1.56* 10^9/L; the “Leukocyte Level, Before modeling” value is given as 9.98 ± 1.56 10^9/L; the “Leukocyte Level, After modeling” value is 3.32 ± 0.89 10^9/L. Besides, in series [1], the “leucocyte levels after treatment, compared to the model control group” value is “significantly increased”. In series [2] (70° C.), the “TGA Weight Loss (%)” value is reported as 3.54 (70° C.) %. Further, the “Solubility in 1 h” value in series [3] (setting [6]) was 112.64 µg/mL (≈ 381 µM). Also, the “Solubility in 2 h” value in series [3] (setting [7]) came out at 133.16 µg/mL (≈ 451 µM). Further, the “Solubility in 18 h” value in series [3] (setting [8]) turned out to be 227.89 µg/mL (≈ 772 µM).
